Key:
AKT1 E17K mutant protein = AKT1 E17K mutant protein (Homo sapiens (Human), UniProt P31749, E17K); test: Intact mass spectrometry, covalent complex formation and ARQ-092 competition; format: binding; conditions: for covalent complex formation with AKT1 E17K mutant protein / covalent complex formation with AKT1 E17K mutant protein in presence of competitor: protein 1 μM, compound 1.5 μM, 2 hrs at 37° C., NaBH4 reduction; for covalent complex formation with AKT1 E17K mutant protein: absence of competitor; for covalent complex formation with AKT1 E17K mutant protein in presence of competitor: with ARQ092 (50 μM); for selectivity of complex formation, AKT1 E17K versus AKT1 WT: comparison of the spectra without competitor
Method: (§1) AKT1 WT or AKT1 E17K (1 μM) was treated with a compound from Table 1 (1.5 μM) for 2 hrs at 37° C., with and without ARQ092 (50 μM) competitor as a specificity control. Reversible imines were captured by reductive amination with 5 mM NaBH4 for 5 min. Reduction reactions were quenched by diluting the sample in equal volume acetonitrile+1% TFA, then analyzed by LCMS.
(§2) FIGS. 1 to 25 provide intact mass spectra for AKT1 WT protein and AKT1 E17K mutant protein after incubation with compounds of the present disclosure and subsequent borohydride reduction. […] Further, FIGS. 1 to 10, 12, and 14 to 25 each provide intact mass spectra following the incubation of an AKT1 protein with a compound of the present disclosure both in the absence of a competitor molecule (i.e., ARQ-092, a molecule known to bind to and inhibit the function of AKT1); and in the presence of a significant stoichiometric excess of a competitor molecule.

AKT1 WT [1] = target: T1, AKT1 WT (Homo sapiens (Human), UniProt P31749); test: as above; format: binding; conditions: protein 1 μM, compound 1.5 μM, 2 hrs at 37° C., NaBH4 reduction; for covalent complex formation with AKT1 WT protein: absence of competitor; for covalent complex formation with AKT1 WT protein in presence of competitor: with ARQ092 (50 μM)
Method: as §1, §2
Target sequence in this assay (P31749 2-480): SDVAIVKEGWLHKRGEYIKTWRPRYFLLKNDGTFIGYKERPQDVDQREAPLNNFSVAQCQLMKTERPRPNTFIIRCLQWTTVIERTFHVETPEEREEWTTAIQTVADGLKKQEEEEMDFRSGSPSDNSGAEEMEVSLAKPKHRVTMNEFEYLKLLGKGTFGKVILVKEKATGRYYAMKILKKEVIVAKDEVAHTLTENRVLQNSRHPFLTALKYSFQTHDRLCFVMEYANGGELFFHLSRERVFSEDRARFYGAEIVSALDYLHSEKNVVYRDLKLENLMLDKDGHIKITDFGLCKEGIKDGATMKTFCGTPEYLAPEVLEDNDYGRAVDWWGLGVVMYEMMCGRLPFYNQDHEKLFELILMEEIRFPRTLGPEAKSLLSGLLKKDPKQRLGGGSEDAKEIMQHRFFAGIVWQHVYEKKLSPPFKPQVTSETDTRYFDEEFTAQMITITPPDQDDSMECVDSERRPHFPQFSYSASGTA

AKT1 E17K [2] = target: T2, AKT1 E17K (Homo sapiens (Human), UniProt P31749, E17K); test: Dissociation rate by intact protein LCMS after ARQ092 chase; format: binding; conditions: for AKT1 E17K t1/2: compound 1.5 μM, 2 hours at 37° C., then ARQ092 50 μM; for Off-rate Selectivity E17K/WT: ratio of t1/2
Method: (§3) AKT1 WT or AKT1 E17K (1 μM) were treated with a compound of Table 1 (1.5 μM) for 2 hours at 37° C., then ARQ092 (50 μM final concentration) was added to prevent aldehyde-containing compound rebinding after initial dissociation. At various timepoints, aliquots were removed and quenched with 5 mM NaBH4 for 5 min to capture the reversible imine through reductive amination. Reduction reactions were quenched by diluting the sample in equal volume acetonitrile+1% TFA, then analyzed by LCMS. Deconvoluted monoisotopic intensities of unmodified vs. compound-modified mass peaks were compared.
Target sequence in this assay (P31749 2-480 E17K): as the sequence (P31749 2-480) above, with E16K counted along it

AKT1 WT [3] = target: T1, AKT1 WT; test: as above; format: binding; conditions: compound 1.5 μM, 2 hours at 37° C., then ARQ092 50 μM
Method: as §3
Target sequence in this assay (P31749 2-480): as the sequence (P31749 2-480) above

AKT1 E17K [4] = target: T2, AKT1 E17K; test: Live cell target engagement (NanoBRET) in HEK293 cells; format: cell-based; conditions: for IC50: HEK293, 2 hours at 37° C.
Target sequence in this assay (P31749 whole entry E17K): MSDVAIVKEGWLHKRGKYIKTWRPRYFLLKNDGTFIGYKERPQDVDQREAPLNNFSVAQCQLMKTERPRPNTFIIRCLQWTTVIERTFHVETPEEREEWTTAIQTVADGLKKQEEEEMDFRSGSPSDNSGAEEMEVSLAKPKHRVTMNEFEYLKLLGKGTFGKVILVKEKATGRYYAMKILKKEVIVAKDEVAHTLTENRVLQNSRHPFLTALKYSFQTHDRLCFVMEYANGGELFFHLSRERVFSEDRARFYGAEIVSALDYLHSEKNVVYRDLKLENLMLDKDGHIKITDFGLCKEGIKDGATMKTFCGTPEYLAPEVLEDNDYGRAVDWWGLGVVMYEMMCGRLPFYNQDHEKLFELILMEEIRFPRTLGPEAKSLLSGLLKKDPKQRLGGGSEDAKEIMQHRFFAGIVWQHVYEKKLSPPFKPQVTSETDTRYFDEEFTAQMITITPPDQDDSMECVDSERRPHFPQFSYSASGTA

AKT1 WT [5] = target: T1, AKT1 WT; test: as above; format: cell-based; conditions: HEK293, 2 hours at 37° C.
Target sequence in this assay (P31749 whole entry): as the sequence (P31749 whole entry E17K) above, with K17E counted along it

AKT2 = AKT2 (Homo sapiens (Human), UniProt P31751); test: as above; format: cell-based; conditions: HEK293, 2 hours at 37° C.
Chain of AKT2 (P31751 whole entry): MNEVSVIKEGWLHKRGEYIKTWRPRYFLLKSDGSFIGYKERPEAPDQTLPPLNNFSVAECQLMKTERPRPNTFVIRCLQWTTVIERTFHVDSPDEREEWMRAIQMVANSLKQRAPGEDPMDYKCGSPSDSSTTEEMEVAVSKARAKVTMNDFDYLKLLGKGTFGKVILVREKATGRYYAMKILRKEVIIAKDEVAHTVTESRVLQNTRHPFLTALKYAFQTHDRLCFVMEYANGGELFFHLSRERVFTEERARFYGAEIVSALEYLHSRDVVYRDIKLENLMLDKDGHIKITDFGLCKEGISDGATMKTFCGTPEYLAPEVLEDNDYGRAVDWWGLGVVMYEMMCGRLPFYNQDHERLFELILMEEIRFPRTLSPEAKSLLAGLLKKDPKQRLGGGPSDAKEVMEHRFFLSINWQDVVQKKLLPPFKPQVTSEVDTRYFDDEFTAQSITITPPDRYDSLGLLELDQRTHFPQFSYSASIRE

Chain of AKT1 E17K mutant protein (P31749 2-480 E17K): as the sequence (P31749 2-480) above, with E16K counted along it

SMILES | covalent complex formation with AKT1 WT protein (AKT1 WT [1]) | AKT1 E17K t1/2 (AKT1 E17K [2]) | Off-rate Selectivity E17K/WT (AKT1 E17K [2]) | AKT1 (WT) t1/2 (AKT1 WT [3]) | AKT1 E17K IC50: Selectivity vs AKT1 WT (AKT1 E17K [4]) | AKT1 E17K IC50: Selectivity vs AKT2 (AKT1 E17K [4]) | IC50 (AKT1 E17K [4]) | IC50 (AKT1 WT [5]) | IC50 (AKT2) | covalent complex formation with AKT1 E17K mutant protein (AKT1 E17K mutant protein) | covalent complex formation with AKT1 E17K mutant protein in presence of competitor (AKT1 E17K mutant protein) | covalent complex formation with AKT1 WT protein in presence of competitor (AKT1 WT [1]) | selectivity of complex formation, AKT1 E17K versus AKT1 WT (AKT1 E17K mutant protein)
Nc1ncccc1-c1nc2ccc(-c3ccccc3)nc2n1-c1ccc(C2(NC(=O)Cc3ccc(C=O)c(O)c3F)CC2)cc1 [Compound 31, N-(1-{4-[2-(2-aminopyridin-3-yl)-5-phenylimidazo[4,5-b]pyridin-3-yl]phenyl}cyclopropyl)-2-(2-fluoro-4-formyl-3-hydroxyphenyl)acetamide] | presence of a covalent complex | 2.52 h | 1.8 | 1.43 h | 1.4 | 5.8 | < 100 nM | < 100 nM | < 100 nM | significant presence of a covalent complex | Essentially little to no covalent complex formation | Essentially little to no covalent complex formation | 
Nc1ncccc1-c1nc2ccc(-c3ccccc3)nc2n1-c1ccc(CNC(=O)c2ccc(O)c(C=O)c2)cc1 [Compound 73, N-(4-(2-(2-aminopyridin-3-yl)-5-phenyl-3H-imidazo[4,5-b]pyridin-3-yl)benzyl)-3-formyl-4-hydroxybenzamide] | small level of a covalent complex | 1.57 h | 3.8 | 0.417 h | 2.1 | 22 | < 100 nM | < 100 nM | 100 to 500 nM | presence of a covalent complex |  |  | selective for complex formation with AKT1 E17K
Nc1ncccc1-c1nc2cccnc2n1-c1ccc(CNC(=O)C(F)c2ccc(C=O)c(O)c2)cc1 (stereo not drawn) [Compound 74, N-({4-[2-(2-aminopyridin-3-yl)imidazo[4,5-b]pyridin-3-yl]phenyl}methyl)-2-fluoro-2-(4-formyl-3-hydroxyphenyl)acetamide] | significant presence of covalent complex | 1.22 h | 6.1 | 0.2 h | 5.5 | 130 | < 100 nM | < 100 nM | > 500 nM | significant presence of a covalent complex | Essentially little to no covalent complex formation | Essentially no covalent complex formation | 
Nc1ncccc1-c1nc2ccc(-c3ccccc3)nc2n1-c1ccc(CNC(=O)Cc2ccc(C=O)c(O)c2F)cc1 [Compound 94, N-({4-[2-(2-aminopyridin-3-yl)-5-phenylimidazo[4,5-b]pyridin-3-yl]phenyl}methyl)-2-(2-fluoro-4-formyl-3-hydroxyphenyl)acetamide] | presence of a covalent complex | 1.85 h | 4.6 | 0.403 h | 2.5 | 22 | < 100 nM | < 100 nM | 100 to 500 nM | presence of a covalent complex | Essentially no covalent complex formation | Essentially no covalent complex formation | 
Nc1ncccc1-c1nc2ccc(-c3cccc(N4CCOCC4)c3)nc2n1-c1ccc(CNC(=O)c2ccc(O)c(C=O)c2)cc1 [Example 20, N-(4-(2-(2-aminopyridin-3-yl)-5-(3-morpholinophenyl)-3H-imidazo[4,5-b]pyridin-3-yl)benzyl)-3-formyl-4-hydroxybenzamide] | presence of a covalent complex |  |  |  | 2 | 6 | < 100 nM | < 100 nM | < 100 nM | significant presence of a covalent complex | Essentially no covalent complex formation | Essentially no covalent complex formation | selective for complex formation with AKT1 E17K

More lines, main results first:

covalent complex formation with AKT1 WT protein (AKT1 WT [1]) | AKT1 E17K t1/2 (AKT1 E17K [2]) | Off-rate Selectivity E17K/WT (AKT1 E17K [2]) | AKT1 (WT) t1/2 (AKT1 WT [3]) | AKT1 E17K IC50: Selectivity vs AKT1 WT (AKT1 E17K [4]) | AKT1 E17K IC50: Selectivity vs AKT2 (AKT1 E17K [4]) | IC50 (AKT1 E17K [4]) | IC50 (AKT1 WT [5]) | IC50 (AKT2) | SMILES | covalent complex formation with AKT1 E17K mutant protein (AKT1 E17K mutant protein) | covalent complex formation with AKT1 E17K mutant protein in presence of competitor (AKT1 E17K mutant protein) | covalent complex formation with AKT1 WT protein in presence of competitor (AKT1 WT [1]) | selectivity of complex formation, AKT1 E17K versus AKT1 WT (AKT1 E17K mutant protein)
presence of a covalent complex |  |  | 0.797 h | 1.7 | 20 | < 100 nM | < 100 nM | 100 to 500 nM | Cc1ccc2nc(-c3cccnc3N)n(-c3ccc(C4(NC(=O)Cc5ccc(C=O)c(O)c5F)CC4)cc3)c2n1 [Compound 139, N-(1-{4-[2-(2-aminopyridin-3-yl)-5-methylimidazo[4,5-b]pyridin-3-yl]phenyl}cyclopropyl)-2-(2-fluoro-4-formyl-3-hydroxyphenyl)acetamide] | significant presence of a covalent complex | lower level of covalent complex formation | Essentially no covalent complex formation | selective for complex formation with AKT1 E17K
presence of a covalent complex |  |  |  | 1.4 | 10 | < 100 nM | < 100 nM | 100 to 500 nM | Nc1ncccc1-c1nc2ccc(N3CCOCC3)nc2n1-c1ccc(C2(NC(=O)Cc3ccc(C=O)c(O)c3F)CC2)cc1 [Compound 140, N-(1-{4-[2-(2-aminopyridin-3-yl)-5-(morpholin-4-yl)imidazo[4,5-b]pyridin-3-yl]phenyl}cyclopropyl)-2-(2-fluoro-4-formyl-3-hydroxyphenyl)acetamide] | significant presence of a covalent complex | Essentially no covalent complex formation | Essentially no covalent complex formation | 
presence of a covalent complex |  |  |  | 1.2 | 4.4 | < 100 nM | < 100 nM | < 100 nM | Nc1ncccc1-c1nc2ccc(-n3cccn3)nc2n1-c1ccc(C2(NC(=O)Cc3ccc(C=O)c(O)c3F)CC2)cc1 [Compound 141, N-(1-{4-[2-(2-aminopyridin-3-yl)-5-(pyrazol-1-yl)imidazo[4,5-b]pyridin-3-yl]phenyl}cyclopropyl)-2-(2-fluoro-4-formyl-3-hydroxyphenyl)acetamide] | significant presence of a covalent complex | Essentially no covalent complex formation | Essentially no covalent complex formation | selective for complex formation with AKT1 E17K

— patent publication US20250115600A1, “COVALENT MODIFIERS OF AKT1 AND USES THEREOF” (Terremoto Biosciences, Inc., priority 2022, published 2025)
